The source of these data is patent US20060069036A1, “Methods of treatment of inflammation using glutathiones” (priority 2004, published 2006).

SMILES strings stand for the structures.

One series concerns GSH levels. As to conditions: oral administration, cited from earlier work.
Another series relates to psoriasis lesions. The text has this: As of the filing of this application, a preliminary program of clinical testing has been conducted. […] Patients instructed to apply the product twice daily to the affected areas.
Setting [1] is: patients with psoriasis symptoms, topical cream 45 mg/ml GSH in phospholipid carrier, twice daily.

Consider `O=C(O)CCCCC1CCSS1` (stereo not drawn) [alpha-lipoic acid, Alpha-lipoic acid], for which the “effect on GSH levels” value in the series on GSH levels (HIV patients) is given as “raises GSH levels”. Further, the safety and tolerability entry in the series on GSH levels is “extremely safe and well tolerated”.

As to `N[C@@H](CCC(=O)N[C@@H](CS)C(=O)NCC(=O)O)C(=O)O` [reduced glutathione (GSH), N-L-gamma-glutamyl-cysteinyl glycine], the adverse side effects entry in the series on psoriasis lesions (clinical studies to date, topical application) is given as “no adverse side effects”. For the same compound, in the series on psoriasis lesions (patients with psoriasis symptoms, topical cream 45 mg/ml GSH in phospholipid carrier, applied twice daily to affected areas), the “response of patient lesions to treatment” value was “significantly improved”. Further, in the series on psoriasis lesions (setting [1]), the “elasticity and supple feeling of the skin” value is reported as “returned”; the “inflammation, irritation, and erythema of the skin” value was “decreased”; the “time after first application to significant improvement (in some cases clearing) of lesions” value was ≤ 24 h.
